Data: patent US10550073B2, “Benzamide derivative” (CSPC ZHONGQI PHARMACEUTICAL TECHNOLOGY (SHIJIAZHUANG) CO., …, priority 2015, dated 2020)

Key:
TNF-α = experiment: In vitro cell experiment: LPS-stimulated TNF-α release in THP-1 cells (ELISA); type: cell-based; details: Homo sapiens; TNF-α in supernatant of THP-1 cells, compound 2 h then LPS 10 μg/ml 2 h
Source text: I. In Vitro Cell Experiment
Cells: human monocytic leukemia THP-1 cells (obtained from the Shanghai Cell Bank of Chinese Academy of Sciences).
Lipopolysaccharides: from Escherichia coli O55: B5, L2880 (Sigma).
Kit: Human TNF-α Elisa MAX Deluxe Set, 430206 (Biolegend)

p38a = p38a (Homo sapiens (Human), UniProt Q16539); experiment: Assay of p38 kinase activity (fluorescence, peptide substrate); type: biochemical; details: 40 nM p38a, 100 μM ATP, 90 minutes
Sequence of p38a (Q16539 whole entry): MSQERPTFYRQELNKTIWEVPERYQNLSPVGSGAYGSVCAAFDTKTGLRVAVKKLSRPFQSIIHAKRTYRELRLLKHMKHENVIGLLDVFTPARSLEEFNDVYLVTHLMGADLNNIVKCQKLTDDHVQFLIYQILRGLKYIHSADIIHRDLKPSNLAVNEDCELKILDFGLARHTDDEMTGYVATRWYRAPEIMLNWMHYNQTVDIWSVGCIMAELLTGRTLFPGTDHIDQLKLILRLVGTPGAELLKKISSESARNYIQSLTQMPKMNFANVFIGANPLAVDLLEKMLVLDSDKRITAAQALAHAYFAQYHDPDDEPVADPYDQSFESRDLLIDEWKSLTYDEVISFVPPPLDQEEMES
Description: II. Assay of p38 Kinase Activity
Experimental Method: 40 nM p38a was added into a reaction buffer, which include 20 mM HEPES (4-hydroxyethylpiperazine ethanesulfonic acid), 5 mM MgCl2 and 1 mM DTT (dithiothreitol) at pH 7.4. 40 μM phosphorylated peptide substrate was added, followed by different concentrations of drugs and 100 μM ATP (adenosine triphosphate), and reacted for 90 minutes in dark. […] The IC50 values of the compounds were obtained according to the fluorescence values.

CYP450, 2C9 enzymes = CYP450, 2C9 enzymes (Homo sapiens (Human), UniProt P11712); experiment: CYP450 enzyme inhibition test in human liver microsome; type: in vitro ADME; details: CYP450 2C9, LC-MS/MS
Sequence of CYP450, 2C9 enzymes (P11712 whole entry): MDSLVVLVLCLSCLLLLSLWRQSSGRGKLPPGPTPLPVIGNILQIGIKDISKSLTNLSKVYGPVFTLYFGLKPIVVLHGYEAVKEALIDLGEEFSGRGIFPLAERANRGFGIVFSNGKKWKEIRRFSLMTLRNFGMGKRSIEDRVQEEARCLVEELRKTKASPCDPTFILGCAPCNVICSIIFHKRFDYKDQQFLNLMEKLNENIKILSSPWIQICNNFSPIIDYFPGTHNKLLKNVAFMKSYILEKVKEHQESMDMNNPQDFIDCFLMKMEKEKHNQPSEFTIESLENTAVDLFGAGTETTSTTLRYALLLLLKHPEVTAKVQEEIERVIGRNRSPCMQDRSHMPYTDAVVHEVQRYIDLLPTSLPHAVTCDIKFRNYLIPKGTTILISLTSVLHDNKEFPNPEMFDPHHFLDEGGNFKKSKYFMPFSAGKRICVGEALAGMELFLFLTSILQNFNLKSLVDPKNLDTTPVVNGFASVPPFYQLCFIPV

IC50 (TNF-α) [nM]	IC50 (p38a) [nM]	IC50 (CYP450, 2C9 enzymes) [nM]	SMILES
5 to 10	< 5		C=CCNC(=O)c1cc(F)c(C)c(-c2ccc(C(=O)NC3CCCCC3)nn2)c1 [Example 80, 6-(5-(allylcarbamoyl)-3-fluoro-2-methylphenyl)-N-cyclohexylpyridazin-3-carboxamide]
5 to 10			Cc1c(F)cc(C(=O)NC2CC2)cc1-c1ccc(C(=O)N2CCC(C)CC2)cc1 [Example 26, N-cyclopropyl-5-fluoro-6-methyl-4′-(4-methylpiperidin-1-carbonyl)-[1,1′-biphenyl]-3-carboxamide]
< 5	< 5	> 50000	Cc1c(F)cc(C(=O)NC2CC2)cc1-c1ccc(C(=O)N(C)CC(C)C)nc1 [Example 16, 5-(5-(cyclopropylcarbamoyl)-3-fluoro-2-methylphenyl)-N-isobutyl-N-methylpyridin-2-formamide]
5 to 10	< 5		C=CCNC(=O)c1cc(F)c(C)c(-c2ccc(C(=O)NC3CCCC3)nn2)c1 [Example 79, 6-(5-(allylcarbamoyl)-3-fluoro-2-methylphenyl)-N-cyclopentylpyridazin-3-carboxamide]
5 to 10	< 5		Cc1c(F)cc(C(=O)NC2CC2)cc1-c1ccc(C(=O)NCCC(C)C)nn1 [Example 60, 6-(5-(cyclopropylcarbamoyl)-3-fluoro-2-methylphenyl)-N-isopentylpyridazin-3-carboxamide]
< 5	5 to 10	> 50000	Cc1cc(-c2cc(C(=O)NC3CC3)cc(F)c2C)ccc1C(=O)NCC(C)C [Example 44, N^3-cyclopropyl-5-fluoro-N^4′-isobutyl-3′,6-dimethyl-[1,1′-biphenyl]-3,4′-dicarboxamide]
< 5	< 5		Cc1c(F)cc(C(=O)NC2CC2)cc1-c1ccc(C(=O)NC2CCCC2)c(F)c1 [Example 32, N^4′-cyclopentyl-N^3-cyclopropyl-3′,5-difluoro-6-methyl-[1,1′-biphenyl]-3,4′-dicarboxamide]
5 to 10			Cc1c(F)cc(C(=O)NC2CC2)cc1-c1ccc(C(=O)N(C)C2CCCC2)cc1 [Example 23, N^4′-cyclopentyl-N^3-cyclopropyl-5-fluoro-N^4′,6-dimethyl-[1,1′-biphenyl]-3,4′-dicarboxamide]
< 5			Cc1c(F)cc(C(=O)NC2CC2)cc1-c1ccc(C(=O)NC2CCCC2)cc1 [Example 22]
< 5	< 5	> 50000	CCC(C)NC(=O)c1ccc(-c2cc(C(=O)NC3CC3)cc(F)c2C)nn1 (stereo not drawn) [Example 58, 6-(5-(cyclopropylcarbamoyl)-3-fluoro-2-methylphenyl)-N-(sec-butyl)pyridazin-3-carboxamide]
5 to 10			C=CCNC(=O)c1cc(F)c(C)c(-c2ccc(C(=O)NCC(C)(C)C)cn2)c1 [Example 81, 6-(5-(allylcarbamoyl)-3-fluoro-2-methylphenyl)-N-neopentylnicotinamide]
< 5	< 5	> 50000	Cc1c(F)cc(C(=O)NC2CC2)cc1-c1ccc(C(=O)NC2CCCC2)nn1 [Example 4]
5 to 10	5 to 10		CCCCCNC(=O)c1ccc(-c2cc(C(=O)NC3CC3)cc(F)c2C)nc1 [Example 9, 6-(5-(cyclopropylcarbamoyl)-3-fluoro-2-methylphenyl)-N-pentylnicotinamide]
< 5	5 to 10		Cc1c(F)cc(C(=O)NC2CC2)cc1-c1ccc2nc(NCC(C)C)sc2c1 [Example 51, N-cyclopropyl-3-fluoro-5-(2-(isobutylamino)benzo[d]thiazol-6-yl)-4-methylbenzamide]
5 to 10			Cc1c(F)cc(C(=O)NC2CC2)cc1-c1ccc2nc(NC3CCCC3)sc2c1 [Example 54, 3-(2-(cyclopentylamino)benzo[d]thiazol-6-yl)-N-cyclopropyl-5-fluoro-4-methylbenzamide]
5 to 10			Cc1c(F)cc(C(=O)NC2CC2)cc1-c1ccc(C(=O)N2CCCCCC2)cc1 [Example 28, 4′-(azepane-1-carbonyl)-N-cyclopropyl-5-fluoro-6-methyl-[1,1′-biphenyl]-3-carboxamide]
5 to 10			Cc1c(F)cc(C(=O)NC2CC2)cc1-c1ccc(C(=O)N2CCCCCC2)cn1 [Example 14]
< 5	< 5		Cc1c(F)cc(C(=O)NC2CC2)cc1-c1ccc(C(=O)NCC(C)C)nc1 [Example 15, 5-(5-(cyclopropylcarbamoyl)-3-fluoro-2-methylphenyl)-N-isobutylpyridin-2-formamide]

IC50 (TNF-α) [nM]	IC50 (p38a) [nM]	IC50 (CYP450, 2C9 enzymes) [nM]	SMILES
5 to 10			CCCN(CCC)C(=O)c1ccc(-c2cc(C(=O)NC3CC3)cc(F)c2C)cc1 [Example 20, N^3-cyclopropyl-5-fluoro-6-methyl-N^4′,N^4′-dipropyl-[1,1′-biphenyl]-3,4′-dicarboxamide]
5 to 10	< 5	> 50000	Cc1c(F)cc(C(=O)NC2CC2)cc1-c1ccc(C(=O)N(C)CC(C)C)nn1 [Example 3]
< 5	< 5		Cc1c(F)cc(C(=O)NC2CC2)cc1-c1ccc(C(=O)NCC(C)C)c(F)c1 [Example 30, N^3-cyclopropyl-3′,5-difluoro-N^4′-isobutyl-6-methyl-[1,1′-biphenyl]-3,4′-dicarboxamide]
< 5			Cc1c(F)cc(C(=O)NC2CC2)cc1-c1ccc(C(=O)NC2CCCCC2)cn1 [Example 10, N-cyclohexyl-6-(5-(cyclopropylcarbamoyl)-3-fluoro-2-methylphenyl) nicotinamide]
< 5	5 to 10		Cc1c(F)cc(C(=O)NC2CC2)cc1-c1ccc(C(=O)N(C)C2CCCCC2)cc1 [Example 25, N^4′-cyclohexyl-N^3-cyclopropyl-5-fluoro-N^4′,6-dimethyl-[1,1′-biphenyl]-3,4′-dicarboxamide]
< 5	< 5		Cc1c(F)cc(C(=O)NC2CC2)cc1-c1ccc(C(=O)N(C)CC(C)C)c(F)c1 [Example 31, N^3-cyclopropyl-3′,5-difluoro-N^4′-isobutyl-N^4′,6-dimethyl-[1,1′-biphenyl]-3,4′-dicarboxamide]
< 5			Cc1cc(-c2cc(C(=O)NC3CC3)cc(F)c2C)ccc1NC(=O)NC1CCCC1 [Example 50, 4′-(3-cyclopentylureido)-N-cyclopropyl-5-fluoro-3′,6-dimethyl-[1,1′-biphenyl]-3-carboxamide]
5 to 10	5 to 10		Cc1c(F)cc(C(=O)NC2CC2)cc1-c1ccc(C(=O)N2CCC(C)CC2)s1 [Example 56, N-cyclopropyl-3-fluoro-4-methyl-5-(5-(4-methylpiperidin-1-carbonyl)thiophen-2-yl)benzamide]
5 to 10	< 5		Cc1c(F)cc(C(=O)NC2CC2)cc1-c1ccc(C(=O)N(C)C2CCCCC2)nn1 [Example 62]
5 to 10			Cc1c(F)cc(C(=O)NC2CC2)cc1-c1ccc(NC(=O)C2CCCCC2)c(F)c1 [Example 47, 4′-(cyclohexanecarboxamido)-N-cyclopropyl-3′,5-difluoro-6-methyl-[1,1′-biphenyl]-3-carboxamide]
< 5	< 5	> 50000	Cc1c(F)cc(C(=O)NC2CC2)cc1-c1ccc(C(=O)NC2CCCCC2)nn1 [Example 5, N-cyclohexyl-6-(5-(cyclopropylcarbamoyl)-3-fluoro-2-methylphenyl) pyridazin-3-carboxamide]
5 to 10		> 50000	Cc1c(F)cc(C(=O)NC2CC2)cc1-c1ccc(C(=O)NCC(C)(C)C)c(N)c1 [Example 42, 3′-amino-N^3-cyclopropyl-5-fluoro-6-methyl-N^4′-neo pentyl-[1,1′-biphenyl]-3,4′ -dicarboxamide]
5 to 10	5 to 10		CCCCNc1nc2ccc(-c3cc(C(=O)NC4CC4)cc(F)c3C)cc2s1 [Example 52, 3-(2-(butylamino)benzo [d]thiazol-6-yl)-N-cyclopropyl-5-fluoro-4-methylbenzamide]
5 to 10	5 to 10		Cc1c(F)cc(C(=O)NC2CC2)cc1-c1ccc(C(=O)N2CCCCC2)s1 [Example 55, N-cyclopropyl-3-fluoro-4-methyl-5-(5-(piperidin-1-carbonyl)thiophen-2-yl) benzamide]
< 5			Cc1c(F)cc(C(=O)NC2CC2)cc1-c1ccc(C(=O)N(C)C2CCCC2)c(F)c1 [Example 33, N^4′-cyclopentyl-N^3-cyclopropyl-3′,5-difluoro-N^4′,6-dimethyl-[1,1′-biphenyl]-3,4′-dicarboxamide]
< 5			CCC(C)(C)NC(=O)c1ccc(-c2cc(C(=O)NC3CC3)cc(F)c2C)cc1N [Example 41, 3′-amino-N^3-cyclopropyl-5-fluoro-6-methyl-N^4′-(tertpentyl)-[1,1′-biphenyl]-3,4′-dicarboxamide]
< 5			Cc1c(F)cc(C(=O)NC2CC2)cc1-c1ccc(C(=O)NC2CCCC2)nc1 [Example 17, N-cyclopentyl-5-(5-(cyclopropylcarbamoyl)-3-fluoro-2-methylphenyl)pyridin-2-foramamide]
5 to 10			Cc1c(F)cc(C(=O)NC2CC2)cc1-c1ccc(C(=O)NC2CCCCC2)cc1 [Example 24, N^4′-cyclohexyl-N^3-cyclopropyl-5-fluoro-6-methyl-[1,1′-biphenyl]-3,4′-dicarboxamide]
